# Laboratory results taken from PMC8297783, “Autocrine signaling by receptor tyrosine kinases in urothelial carcinoma of the bladder” (PLoS ONE, 2021).
# Values joined by “and” are separate entries in the source; they are usually repeats but may differ in a detail not shown here. Equal values may be shown once. Read-outs that look alike come from different tables or passages of the source.
# What was measured:
# MERTK = molecular target: T1, MERTK (Homo sapiens, UniProt Q12866); assay: phospho-MERTK immunoblot of J82 and MDXC1 lysates; format: cell-based; conditions: J82 and MDXC1 cells
# T1 construct: endogenous in cells; host or cells: J82 and MDXC1 (J82 xenograft explant)
# T1 sequence (Q12866 21-999): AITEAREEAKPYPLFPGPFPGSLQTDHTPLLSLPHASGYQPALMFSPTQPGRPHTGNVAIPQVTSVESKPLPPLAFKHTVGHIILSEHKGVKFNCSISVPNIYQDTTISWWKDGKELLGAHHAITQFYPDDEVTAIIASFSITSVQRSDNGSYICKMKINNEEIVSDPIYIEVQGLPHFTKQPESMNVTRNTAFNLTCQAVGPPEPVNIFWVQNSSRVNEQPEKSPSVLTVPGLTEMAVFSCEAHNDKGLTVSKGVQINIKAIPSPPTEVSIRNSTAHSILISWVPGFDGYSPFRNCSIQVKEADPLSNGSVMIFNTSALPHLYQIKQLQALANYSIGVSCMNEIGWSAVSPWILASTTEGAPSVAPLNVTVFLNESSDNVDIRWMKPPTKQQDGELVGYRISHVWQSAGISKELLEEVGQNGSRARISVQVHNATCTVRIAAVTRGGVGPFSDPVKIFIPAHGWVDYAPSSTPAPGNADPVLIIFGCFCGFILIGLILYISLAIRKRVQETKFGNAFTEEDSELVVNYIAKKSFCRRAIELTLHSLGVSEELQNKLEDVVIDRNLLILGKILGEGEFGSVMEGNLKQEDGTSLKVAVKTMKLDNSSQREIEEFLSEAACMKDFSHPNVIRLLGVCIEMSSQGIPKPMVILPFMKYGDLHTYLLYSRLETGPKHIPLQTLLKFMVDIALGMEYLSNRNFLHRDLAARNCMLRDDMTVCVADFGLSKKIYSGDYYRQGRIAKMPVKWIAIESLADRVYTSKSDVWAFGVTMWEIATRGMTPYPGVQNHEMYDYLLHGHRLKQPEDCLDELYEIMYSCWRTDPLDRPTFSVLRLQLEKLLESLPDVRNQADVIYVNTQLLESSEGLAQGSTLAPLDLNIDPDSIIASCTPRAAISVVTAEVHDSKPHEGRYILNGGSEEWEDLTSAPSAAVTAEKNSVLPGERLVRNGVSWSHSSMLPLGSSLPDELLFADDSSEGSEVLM
# Method: For SDS-PAGE and immunoblot analysis, cultured cells were washed with cold PBS, extracted in Laemmli sample buffer, sonicated in ice-cold water with 3 cycles of 15 sec sonication followed by 1 min of cooling time. Samples were then heated for 5 min at 95°C prior to SDS-PAGE and electrophoretic transfer to nitrocellulose or PVDF membrane. Membranes were processed as described previously: membranes were blocked with 5% milk in Tris buffered saline, 0.1% Tween 20 (TBST) for 1 h at 25°C before incubating with primary antibody (1:1000 dilution) in TBST-5% milk for 16 h at 4°C. Membranes were then washed 3 times with TBST, incubated with horse radish peroxidase-labeled secondary antibody (1:10,000 dilution) for 1 h at 25°C, and washed for 3 h with TBS prior to ECL detection (Pierce/Thermo Fisher Scientific) according to the manufacturer’s supplied protocol. Imaging and quantitation of ECL light emission was performed using an Azure Biosystems c600 imaging system (Dublin, California USA).
# Fig 8 Serial passage of J82 cell xenografts in mice. (A) Tumor volume (mm^3) of individual J82 (left) or MDXC1 (middle) cell xenografts in mice, or mean (+/- SD) tumor growth of both cell line xenografts (right), vs. days post implantation.
# J82 cells [1] = assay: cell proliferation assay, J82 cells; format: cell-based, Human; conditions: 1% FBS, 6 d
# J82 cells [2] = assay: anchorage independent growth assay, J82 cells; conditions: 1% FBS, cabozantinib 300 nM, with or without Gas6 5.7 nM
# NTRK1 = NTRK1 (Homo sapiens, UniProt P04629); assay: cell-free kinase inhibition assay, cabozantinib dose-dependence; format: biochemical; conditions: minimum of 3 x 10-dose curves
# NTRK2 = NTRK2 (Homo sapiens, UniProt Q16620); assay: as above; format: biochemical
# NTRK2, sequence (Q16620 32-822): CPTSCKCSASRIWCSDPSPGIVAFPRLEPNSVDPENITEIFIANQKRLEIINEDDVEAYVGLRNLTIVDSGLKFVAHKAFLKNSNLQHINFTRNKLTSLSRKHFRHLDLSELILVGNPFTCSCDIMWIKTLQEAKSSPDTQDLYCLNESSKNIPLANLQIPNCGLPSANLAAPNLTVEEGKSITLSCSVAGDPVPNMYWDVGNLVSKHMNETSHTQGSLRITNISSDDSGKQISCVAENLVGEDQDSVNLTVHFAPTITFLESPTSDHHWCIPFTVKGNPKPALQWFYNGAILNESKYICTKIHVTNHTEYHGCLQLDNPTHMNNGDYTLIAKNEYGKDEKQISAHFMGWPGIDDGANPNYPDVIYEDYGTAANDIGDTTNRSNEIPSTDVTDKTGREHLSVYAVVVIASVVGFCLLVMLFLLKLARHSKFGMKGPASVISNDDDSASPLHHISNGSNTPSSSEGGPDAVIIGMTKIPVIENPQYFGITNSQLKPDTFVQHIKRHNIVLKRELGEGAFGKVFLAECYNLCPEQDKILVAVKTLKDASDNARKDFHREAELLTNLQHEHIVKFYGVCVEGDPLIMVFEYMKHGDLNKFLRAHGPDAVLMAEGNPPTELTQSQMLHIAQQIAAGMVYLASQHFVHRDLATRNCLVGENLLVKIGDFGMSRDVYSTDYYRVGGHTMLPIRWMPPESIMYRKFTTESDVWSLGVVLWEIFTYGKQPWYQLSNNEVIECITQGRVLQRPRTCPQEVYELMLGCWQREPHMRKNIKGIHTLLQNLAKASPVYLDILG
# Akt [3] = assay: Akt kinase activation (pAkt/tAkt) in FL3 cells, MST1R and CSF1R pathways; format: cell-based, Human; conditions: serum-deprived FL3 cells, MST1 (5 nM) or CSF1 (10 nM), cabozantinib 300 nM
# MUSK = MUSK (Homo sapiens, UniProt O15146); assay: cell-free kinase inhibition assay, cabozantinib dose-dependence; format: biochemical
# CSF1R [4] = molecular target: T2, CSF1R (Homo sapiens, UniProt P07333); parameters: method as in PMID 30075184; conditions: intact cells; cited from earlier work
# ROS = ROS (Homo sapiens, UniProt P08922); assay: cell-free kinase inhibition assay, cabozantinib dose-dependence; format: biochemical; conditions: minimum of 3 x 10-dose curves
# ROS, sequence (P08922 28-2347): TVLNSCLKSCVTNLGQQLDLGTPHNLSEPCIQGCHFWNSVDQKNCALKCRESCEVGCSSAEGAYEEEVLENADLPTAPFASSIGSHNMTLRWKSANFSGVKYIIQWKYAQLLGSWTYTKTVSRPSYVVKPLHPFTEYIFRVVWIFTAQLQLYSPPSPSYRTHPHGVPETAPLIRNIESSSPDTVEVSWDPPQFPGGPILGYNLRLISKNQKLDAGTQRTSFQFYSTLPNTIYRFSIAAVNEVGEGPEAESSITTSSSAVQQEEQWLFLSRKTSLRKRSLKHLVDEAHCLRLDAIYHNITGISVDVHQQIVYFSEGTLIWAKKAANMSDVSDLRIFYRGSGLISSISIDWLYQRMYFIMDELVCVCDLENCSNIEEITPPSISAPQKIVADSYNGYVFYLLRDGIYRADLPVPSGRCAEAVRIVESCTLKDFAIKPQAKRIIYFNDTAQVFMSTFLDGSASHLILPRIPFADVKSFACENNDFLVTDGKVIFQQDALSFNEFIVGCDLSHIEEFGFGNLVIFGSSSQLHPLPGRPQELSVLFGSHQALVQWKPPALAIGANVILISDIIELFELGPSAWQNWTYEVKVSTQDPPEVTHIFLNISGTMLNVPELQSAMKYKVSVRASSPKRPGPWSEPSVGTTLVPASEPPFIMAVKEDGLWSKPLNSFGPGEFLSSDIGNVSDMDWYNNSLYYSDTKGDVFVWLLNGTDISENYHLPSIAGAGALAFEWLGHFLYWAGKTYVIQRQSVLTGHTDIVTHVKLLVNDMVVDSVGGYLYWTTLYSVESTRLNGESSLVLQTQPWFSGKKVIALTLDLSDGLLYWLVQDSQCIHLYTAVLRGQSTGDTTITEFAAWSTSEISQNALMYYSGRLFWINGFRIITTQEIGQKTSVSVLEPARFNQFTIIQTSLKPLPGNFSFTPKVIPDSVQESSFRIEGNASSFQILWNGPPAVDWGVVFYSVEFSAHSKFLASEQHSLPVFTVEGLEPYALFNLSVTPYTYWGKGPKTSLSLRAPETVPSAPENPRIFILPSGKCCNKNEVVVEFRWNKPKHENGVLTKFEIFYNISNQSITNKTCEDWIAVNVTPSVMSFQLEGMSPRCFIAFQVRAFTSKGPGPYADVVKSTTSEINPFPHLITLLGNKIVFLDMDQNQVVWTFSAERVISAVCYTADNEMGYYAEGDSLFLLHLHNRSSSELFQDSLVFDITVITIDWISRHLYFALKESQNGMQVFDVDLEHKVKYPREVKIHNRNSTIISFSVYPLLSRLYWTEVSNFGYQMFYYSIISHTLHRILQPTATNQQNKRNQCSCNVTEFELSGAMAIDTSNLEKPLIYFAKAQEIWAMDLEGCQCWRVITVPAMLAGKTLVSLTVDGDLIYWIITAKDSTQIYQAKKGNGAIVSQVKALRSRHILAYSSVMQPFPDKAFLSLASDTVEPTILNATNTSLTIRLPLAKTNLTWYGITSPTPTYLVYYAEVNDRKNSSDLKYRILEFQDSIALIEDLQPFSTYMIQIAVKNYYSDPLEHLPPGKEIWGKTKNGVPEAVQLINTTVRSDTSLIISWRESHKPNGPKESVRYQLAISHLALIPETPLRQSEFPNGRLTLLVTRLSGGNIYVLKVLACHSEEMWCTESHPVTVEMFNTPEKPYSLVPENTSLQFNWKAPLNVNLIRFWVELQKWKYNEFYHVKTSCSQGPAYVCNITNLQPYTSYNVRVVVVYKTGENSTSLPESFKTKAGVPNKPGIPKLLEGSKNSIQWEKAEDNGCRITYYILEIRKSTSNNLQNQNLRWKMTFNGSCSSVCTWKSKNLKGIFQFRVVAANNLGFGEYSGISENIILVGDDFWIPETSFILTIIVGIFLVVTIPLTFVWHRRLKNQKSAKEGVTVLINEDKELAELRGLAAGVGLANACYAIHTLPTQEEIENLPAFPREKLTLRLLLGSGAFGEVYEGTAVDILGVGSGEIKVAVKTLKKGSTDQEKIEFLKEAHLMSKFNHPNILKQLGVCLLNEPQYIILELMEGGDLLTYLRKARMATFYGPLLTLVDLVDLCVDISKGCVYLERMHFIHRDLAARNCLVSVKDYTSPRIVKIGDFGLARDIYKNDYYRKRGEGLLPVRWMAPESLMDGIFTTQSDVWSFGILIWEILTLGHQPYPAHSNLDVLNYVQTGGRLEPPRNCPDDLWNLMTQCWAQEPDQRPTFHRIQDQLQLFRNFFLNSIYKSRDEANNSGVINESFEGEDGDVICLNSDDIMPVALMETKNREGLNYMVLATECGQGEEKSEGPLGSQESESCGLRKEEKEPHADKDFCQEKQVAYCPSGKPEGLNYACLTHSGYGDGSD
# FGFR2 = FGFR2 (Homo sapiens, UniProt P21802); assay: as above; format: biochemical; conditions: minimum of 3 x 10-dose curves
# CSF1R [5] = molecular target: T2, CSF1R; assay: as above; format: biochemical; conditions: minimum of 3 x 10-dose curves
# FLT4 = FLT4 (Homo sapiens, UniProt P35916); assay: as above; format: biochemical; conditions: minimum of 3 x 10-dose curves
# FLT4, sequence (P35916 25-1363): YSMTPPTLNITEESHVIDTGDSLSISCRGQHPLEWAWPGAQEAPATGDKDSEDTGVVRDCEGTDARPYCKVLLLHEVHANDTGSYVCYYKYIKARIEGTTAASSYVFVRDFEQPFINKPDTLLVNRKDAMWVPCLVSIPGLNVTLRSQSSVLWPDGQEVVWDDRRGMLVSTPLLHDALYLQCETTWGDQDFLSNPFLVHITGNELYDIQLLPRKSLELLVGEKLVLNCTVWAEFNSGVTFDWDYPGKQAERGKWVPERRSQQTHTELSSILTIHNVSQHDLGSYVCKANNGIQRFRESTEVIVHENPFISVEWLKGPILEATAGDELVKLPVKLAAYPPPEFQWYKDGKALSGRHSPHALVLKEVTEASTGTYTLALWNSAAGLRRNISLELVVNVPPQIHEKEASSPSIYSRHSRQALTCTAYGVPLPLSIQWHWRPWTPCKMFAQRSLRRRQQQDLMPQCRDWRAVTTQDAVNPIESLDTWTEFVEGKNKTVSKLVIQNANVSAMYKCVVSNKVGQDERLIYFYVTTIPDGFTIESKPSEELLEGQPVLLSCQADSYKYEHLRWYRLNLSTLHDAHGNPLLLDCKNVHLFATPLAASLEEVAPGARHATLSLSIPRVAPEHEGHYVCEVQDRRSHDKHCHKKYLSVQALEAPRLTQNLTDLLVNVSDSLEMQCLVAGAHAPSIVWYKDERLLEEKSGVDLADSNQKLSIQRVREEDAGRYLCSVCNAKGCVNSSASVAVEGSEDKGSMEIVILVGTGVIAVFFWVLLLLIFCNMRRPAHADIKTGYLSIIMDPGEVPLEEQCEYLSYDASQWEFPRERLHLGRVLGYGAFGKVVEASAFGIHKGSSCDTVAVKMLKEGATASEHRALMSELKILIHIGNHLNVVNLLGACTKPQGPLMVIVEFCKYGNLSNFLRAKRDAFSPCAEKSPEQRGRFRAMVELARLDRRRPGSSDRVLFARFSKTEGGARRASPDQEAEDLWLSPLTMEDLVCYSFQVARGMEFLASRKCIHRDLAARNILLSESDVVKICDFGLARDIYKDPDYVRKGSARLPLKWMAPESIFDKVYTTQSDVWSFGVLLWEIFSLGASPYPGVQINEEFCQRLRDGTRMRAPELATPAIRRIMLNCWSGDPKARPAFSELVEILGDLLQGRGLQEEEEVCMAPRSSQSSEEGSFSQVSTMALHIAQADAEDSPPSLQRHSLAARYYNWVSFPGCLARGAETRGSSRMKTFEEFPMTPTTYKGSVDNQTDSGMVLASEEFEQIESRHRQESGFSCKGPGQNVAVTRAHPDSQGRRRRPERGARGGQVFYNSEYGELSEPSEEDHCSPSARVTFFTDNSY
# IGF1R = IGF1R (Homo sapiens, UniProt P08069); assay: as above; format: biochemical
# PDGFRA = PDGFRA (Homo sapiens, UniProt P16234); assay: as above; format: biochemical; conditions: minimum of 3 x 10-dose curves
# DDR2 = DDR2 (Homo sapiens, UniProt Q16832); assay: as above; format: biochemical; conditions: minimum of 3 x 10-dose curves
# 5637 cells = assay: cell proliferation assay, 5637 cells; format: cell-based, Human; conditions: 1% FBS, 6 d
# TEK = conditions: in vitro; read-out: IC50, TEK inhibition in vitro; cited from earlier work
# FL3 cells [6] = assay: anchorage independent growth assay, FL3 cells; conditions: 1% FBS, cabozantinib 300 nM, with or without MST1 5 nM or CSF1 10 nM
# NTRK3 = NTRK3 (Homo sapiens, UniProt Q16288); assay: cell-free kinase inhibition assay, cabozantinib dose-dependence; format: biochemical; conditions: minimum of 3 x 10-dose curves
# Erk [7] = assay: Erk kinase activation (pErk/tErk) in FL3 cells, MST1R and CSF1R pathways; format: cell-based, Human; conditions: MST1 or CSF1, cabozantinib
# FGFR4 = FGFR4 (Homo sapiens, UniProt P22455); assay: cell-free kinase inhibition assay, cabozantinib dose-dependence; format: biochemical
# Axl = molecular target: T3, Axl (Homo sapiens, UniProt P30530); assay: Axl kinase activation (pAxl/tAxl) by 2-site immunoassay in J82 cells; format: cell-based; conditions: serum-deprived J82 cells, Gas6 5.7 nM 1 h at 37°C, added cabozantinib 300 nM, relative to untreated cells
# T3 construct: endogenous in cells; host or cells: J82 (ATCC HTB-1)
# FGFR3 = FGFR3 (Homo sapiens, UniProt P22607); assay: cell-free kinase inhibition assay, cabozantinib dose-dependence; format: biochemical
# Erk [8] = assay: Erk kinase activation (pErk/tErk) by 2-site immunoassay in J82 cells; format: cell-based, Human; conditions: serum-deprived J82 cells
# Akt [9] = assay: Akt kinase activation (pAkt/tAkt) by 2-site immunoassay in J82 cells; format: cell-based, Human; conditions: serum-deprived J82 cells
# DDR1 = DDR1 (Homo sapiens, UniProt Q08345); assay: cell-free kinase inhibition assay, cabozantinib dose-dependence; format: biochemical; conditions: minimum of 3 x 10-dose curves
# ALK = ALK (Homo sapiens, UniProt Q9UM73); assay: as above
# advanced BCa = conditions: clinical trial of cabozantinib in advanced BCa patients; cited from earlier work
# J82 cells [10] = assay: Transwell cell migration assay, J82 cells; conditions: serum deprived J82 cells, 16 h, 37°C, Gas6 5.7 nM, cabozantinib 300 nM
# FGFR1 = FGFR1 (Homo sapiens, UniProt P11362); assay: cell-free kinase inhibition assay, cabozantinib dose-dependence; format: biochemical
# FL3 cells [11] = assay: Transwell cell migration assay, FL3 cells; conditions: serum deprived FL3 cells, 16 h, 37°C, cabozantinib 300 nM
# FL3 cells [12] = assay: cell proliferation assay, FL3 cells; format: cell-based, Human; conditions: 1% FBS, 6 d
# TYRO3 = TYRO3 (Homo sapiens, UniProt Q06418); assay: cell-free kinase inhibition assay, cabozantinib dose-dependence; format: biochemical; conditions: minimum of 3 x 10-dose curves
# [13] = cabozantinib 300 nM, in the presence or absence of added Gas6 (5.7 nM)
# [14] = Gas6 5.7 nM 1 h, cabozantinib 300 nM
# [15] = exogenous Gas6 5.7 nM, 1 h at 37°C
compound,measurement,setting,value
CN1CCN(Cc2ccc(Nc3ncc(Cl)c(Nc4ccccc4S(=O)(=O)N(C)C)n3)cc2)CC1 [TP0903],phospho-MERTK content,MERTK; TP0903 300 nM,reduced phospho-MERTK content below that of untreated serum-deprived cells
COc1cc2nccc(Oc3ccc(NC(=O)C4(C(=O)Nc5ccc(F)cc5)CC4)cc3)c2cc1OC [cabozantinib],proliferation,J82 cells [1]; [13],significantly inhibited proliferation by these lines below the rate of untreated cells
same,anchorage independent growth,J82 cells [2],inhibited
same,IC50,NTRK1,11 nM
same,IC50,NTRK2,< 50 nM
same,IC50,"NTRK2; IC50 (NTRK2), cell-free assay, minimum of 3 x 10-dose curves",15 nM
same,Akt kinase activation (pAkt/tAkt),Akt [3],suppressed significantly below baseline
same,IC50,MUSK,> 3000 nM
same,inhibition of CSF1R activation,CSF1R [4],complete inhibition
same,IC50,ROS,43 nM and < 50 nM
same,IC50,FGFR2,> 3000 nM
same,IC50,CSF1R [5],14 nM
same,IC50,FLT4,24 nM and < 50 nM
same,IC50,IGF1R,> 3000 nM
same,IC50,PDGFRA,414 nM
same,IC50,DDR2,< 150 nM
same,proliferation,5637 cells; [13],significantly inhibited proliferation by these lines below the rate of untreated cells
same,IC50,TEK,14 nM
same,anchorage independent growth,FL3 cells [6],inhibited
same,IC50,NTRK3,< 150 nM
same,Erk kinase activation (pErk/tErk),Erk [7],suppressed significantly below baseline
same,IC50,FGFR4,> 3000 nM
same,Axl kinase activation (pAxl/tAxl),Axl,suppressed significantly below control levels
same,IC50,FGFR3,> 3000 nM
same,Erk kinase activation (pErk/tErk),Erk [8]; [14],suppression below baseline
same,Akt kinase activation (pAkt/tAkt),Akt [9]; [14],suppression below baseline
same,IC50,DDR1,< 150 nM
same,IC50,ALK,> 3000 nM
same,overall response rate,advanced BCa,33%
same,Gas6-induced migration,J82 cells [10],repressed
same,IC50,FGFR1,> 3000 nM
same,CSF1-induced migration,FL3 cells [11]; CSF1 10 nM,repressed
same,MST1-induced migration,FL3 cells [11]; MST1 5 nM,repressed
same,proliferation,FL3 cells [12]; both cabozantinib 300 nM and MST1 5 nM,"reduced FL3 proliferation to the control cell growth rate, but not below"
same,proliferation rate,"FL3 cells [12]; cabozantinib alone 300 nM, relative to untreated cells",significantly reduced proliferation rate
same,IC50,TYRO3,< 50 nM and 3 nM
"Gas6: exogenous ligand of AXL (also activates MERTK), added to cells at 5.7 nM",proliferation rate,J82 cells [1]; exogenously added Gas6 5.7 nM,significantly increased
same,MERTK autophosphorylation,MERTK; exogenous Gas6 5.7 nM,stimulated robust MERTK autophosphorylation
same,proliferation rate,5637 cells; exogenously added Gas6 5.7 nM,significantly increased
same,Erk kinase activation (pErk/tErk),Erk [8]; [15],significant exogenous Gas6-induced activation
same,Akt kinase activation (pAkt/tAkt),Akt [9]; [15],significant exogenous Gas6-induced activation
